“And” between values parts separate entries of the source, which are not always exact repeats. Equal entries are not always repeated. “Also recorded” adds a separate entry of the source. Where two headings read alike, the source gives them in different places.
What was measured:
[1] = system: Clostridium perfringens ATCC10873; format: cell-based; design: key to Settling: Good: Settling effect observed; Poor: No settling effect observed; conditions: for Settling: 37° C., 8 hours; for Concentration required for settling / at which settling was confirmed: optical density about 2.0 at 660 nm
[2] = system: Clostridium perfringens ATCC10873; format: cell-based; conditions: for Shape: 8 hours; for Agglomeration (text) / Shape of the bacterial cells: Example 2 strains
[3] = system: Clostridium perfringens SM101 (CPE toxin producer); format: cell-based; design: key to Agglomeration: Good: Agglomeration effect observed; Poor: No agglomeration effect observed; conditions: 500 mM
[4] = system: Clostridium perfringens CNEOP004 (netB toxin producer); format: cell-based; design: key to Agglomeration: Good: Agglomeration effect observed; Poor: No agglomeration effect observed; conditions: 500 mM
[5] = system: Clostridium perfringens ATCC10873; format: cell-based; design: unit not given here; conditions: bacterial cells, 8 hours, diluted 100 times
[6] = system: Clostridium perfringens SM101; format: cell-based; design: unit not given here; conditions: bacterial cells, 500 mM, 8 hours, diluted 100 times
[7] = system: Clostridium perfringens CNEOP004; format: cell-based; design: unit not given here; conditions: bacterial cells, 500 mM, 8 hours, diluted 100 times
[8] = system: Lactobacillus casei ATCC393; format: cell-based; design: key to Agglomeration: Good: Those in which agglomeration observed under upright microscope; Poor: Those in which no agglomeration observed under upright microscope
[9] = system: Bifidobacterium animalis JCM1190; format: cell-based; design: key to Agglomeration: Good: Those in which agglomeration observed under upright microscope; Poor: Those in which no agglomeration observed under upright microscope
[10] = system: Salmonella enterica IAM1648; format: cell-based; design: key: Good: Those in which agglomeration observed under upright microscope; Poor: Those in which no agglomeration observed under upright microscope
Escherichia coli MG1655 = format: cell-based; design: key: Good: Those in which agglomeration observed under upright microscope; Poor: Those in which no agglomeration observed under upright microscope
[11] = system: Clostridium perfringens ATCC10873; format: cell-based; design: key: Good: Agglomeration effect observed; Poor: No agglomeration effect observed
[12] = system: Clostridium perfringens ATCC10873; format: cell-based; design: key: Good: Those in which agglomeration observed under upright microscope; Poor: Those in which no agglomeration observed under upright microscope; conditions: Table 4, 500 mM
[13] = system: mixed bacterial cells of Clostridium perfringens ATCC10873, Salmonella enterica IAM1648 and E. coli MG1655; format: cell-based; conditions: 500 mM in combination with Arabic Gum 1%; OD660 about 2.0, 37° C.
[14] = system: Clostridium perfringens strain SM101; format: cell-based; conditions: KCl 500 mM
Clostridium perfringens = format: in vivo, chickens (broilers); conditions: for Dead birds Total: 500 chickens
[15] = design: species or system chickens (broilers, UK Chunky); conditions: in vivo
[16] = Table 2-1, 100 mM, without AG, 8 hours
[17] = Table 2-1, 500 mM, w/AG 1%, 8 hours
[18] = Table 2-1, 500 mM, without AG, 8 hours
[19] = Day 0-14, BMD 55 ppm, Coated-KCl 47 ppm in feed
[20] = Day 15-28, BMD 55 ppm, Coated-KCl 47 ppm in feed
[21] = Day 29-42, BMD 55 ppm, Coated-KCl 47 ppm in feed

[Ca+2].[Cl-].[Cl-] [CaCl2]
Settling ([1]; 20 mM, without AG): Poor | Settling ([1]; 100 mM, without AG): Poor | Shape ([2]; 20 mM, without AG): Rod-shaped | Shape ([2]; 100 mM, without AG): Rod-shaped | Concentration at which bacterial cells agglomerated ([2]; absence of AG): ≥ 20 mM | Agglomeration (text) ([2]; absence of AG): agglomerated in the state of bacilli | Shape ([3]; without AG, 8 hours): Rod-shaped | Agglomeration ([3]; Table 2-2, without AG, 8 hours): Good | Agglomeration ([3]; Table 3-2, without AG): Good | Shape ([4]; without AG, 8 hours): Rod-shaped | Agglomeration ([4]; Table 2-3, without AG, 8 hours): Good | Agglomeration ([4]; Table 3-3, without AG): Good | Zeta potential ([5]; 20 mM, without AG): −4.4 | Zeta potential ([5]; 100 mM, without AG): −4.0 | Zeta potential ([6]; without AG): −14.3 | Zeta potential ([7]; without AG): −12.3 | Agglomeration [8]: Poor | Agglomeration [9]: Poor | Agglomeration [10]: Poor | Agglomeration (Escherichia coli MG1655): Poor | Agglomeration ([11]; Table 2-1, 20 mM, without AG, 8 hours): Good | Agglomeration [11, 16]: Good | Agglomeration ([11]; Table 3-1, 20 mM, without AG): Good | Agglomeration ([11]; Table 3-1, 100 mM, without AG): Good | Agglomeration ([12]; without AG): Good

[Cl][Fe][Cl] [FeCl2]
Settling ([1]; 10 mM, without AG): Good | Settling ([1]; 50 mM, without AG): Good | Concentration required for settling / at which settling was confirmed ([1]; absence of AG): ≥ 10 mM | Shape ([2]; 10 mM, without AG): Rod-shaped | Shape ([2]; 50 mM, without AG): Rod-shaped | Concentration at which bacterial cells agglomerated ([2]; absence of AG): ≥ 10 mM | Agglomeration (text) ([2]; absence of AG): showed an agglomeration effect; also recorded: agglomerated in the state of bacilli | Shape ([3]; without AG, 8 hours): Rod-shaped | Agglomeration ([3]; Table 2-2, without AG, 8 hours): Good | Agglomeration ([3]; Table 3-2, without AG): Good | Shape ([4]; without AG, 8 hours): Rod-shaped | Agglomeration ([4]; Table 2-3, without AG, 8 hours): Good | Agglomeration ([4]; Table 3-3, without AG): Good | Zeta potential ([5]; 10 mM, without AG): 0.8 | Zeta potential ([5]; 50 mM, without AG): 20.7 | Zeta potential ([6]; without AG): 4.1 | Zeta potential ([7]; without AG): 21.5 | Agglomeration [8]: Good | Agglomeration effect [8]: showed an agglomeration effect | Agglomeration [9]: Good | Agglomeration effect [9]: showed an agglomeration effect | Agglomeration [10]: Poor | Agglomeration (Escherichia coli MG1655): Poor | Agglomeration ([11]; Table 2-1, 10 mM, without AG, 8 hours): Good | Agglomeration ([11]; Table 2-1, 50 mM, without AG, 8 hours): Good | Agglomeration ([11]; Table 3-1, 10 mM, without AG): Good | Agglomeration ([11]; Table 3-1, 50 mM, without AG): Good | Agglomeration ([12]; without AG): Good

[Cl-].[K+] [KCl]
Settling ([1]; 100 mM, without AG): Good | Settling ([1]; 500 mM, w/AG 1%): Good | Settling ([1]; 500 mM, without AG): Good | Concentration required for settling / at which settling was confirmed ([1]; absence of AG): ≥ 100 mM | Shape ([2]; 100 mM, without AG): Spheroidal | Shape ([2]; 500 mM, w/AG 1%): Spheroidal | Shape ([2]; 500 mM, without AG): Spheroidal | Agglomeration (text) ([2]; absence of AG): did not agglomerate | Shape of the bacterial cells ([2]; absence of AG): changed from bacilli to cocci | Agglomeration (text) ([2]; coexistence with AG): agglomerated in the state of cocci | Shape ([3]; w/AG 1%, 8 hours): Spheroidal | Shape ([3]; without AG, 8 hours): Spheroidal | Agglomeration ([3]; Table 2-2, w/AG 1%, 8 hours): Good | Agglomeration ([3]; Table 2-2, without AG, 8 hours): Poor | Agglomeration ([3]; Table 3-2, w/AG 1%): Good | Agglomeration ([3]; Table 3-2, without AG): Poor | Shape ([4]; w/AG 1%, 8 hours): Spheroidal | Shape ([4]; without AG, 8 hours): Spheroidal | Agglomeration ([4]; Table 2-3, w/AG 1%, 8 hours): Good | Agglomeration ([4]; Table 2-3, without AG, 8 hours): Poor | Agglomeration ([4]; Table 3-3, w/AG 1%): Good | Agglomeration ([4]; Table 3-3, without AG): Poor | Zeta potential ([5]; 500 mM, W/AG 1%): −10.2 | Zeta potential ([5]; 500 mM, without AG): −29.0 | Zeta potential ([6]; w/AG 1%): −26.5 | Zeta potential ([6]; without AG): −30.2 | Zeta potential ([7]; w/AG 1%): −23 | Zeta potential ([7]; without AG): −25 | Agglomeration [8]: Poor | Agglomeration effect [8]: not exerted | Agglomeration [9]: Poor | Agglomeration effect [9]: not exerted | Agglomeration [10]: Poor and Good | Agglomeration (Escherichia coli MG1655): Poor and Good | Agglomeration of the three types of enteric bad bacteria [13]: can quickly agglomerate | Nature of cocci (vegetative cells or spores) under phase-contrast microscope [14]: not spores | Agglomeration [11, 16]: Poor | Agglomeration [11, 17]: Good | Agglomeration [11, 18]: Poor | Agglomeration ([11]; Table 3-1, 500 mM, W/AG 1%): Good | Agglomeration ([11]; Table 3-1, 500 mM, without AG): Poor | Agglomeration ([12]; W/AG 1%): Good | Agglomeration ([12]; without AG): Poor

[Cl-].[Cl-].[Mg+2] [MgCl2]
Settling effect ([1]; 500 mM, absence of AG): did not exert a settling effect | Settling effect ([1]; 500 mM, in combination with AG): exerted a settling effect | Settling ([1]; 500 mM, w/AG 1%): Good | Settling ([1]; 500 mM, without AG): Poor | Concentration required for settling / at which settling was confirmed ([1]; absence of AG): over 500 mM | Shape ([2]; 500 mM, w/AG 1%): Rod-shaped | Shape ([2]; 500 mM, without AG): Rod-shaped | Agglomeration (text) ([2]; absence of AG): no agglomeration was observed | Shape of the bacterial cells ([2]; absence of AG): shape as bacilli remained unchanged | Agglomeration (text) ([2]; coexistence with AG): agglomeration of Clostridium perfringens was observed | Shape ([3]; w/AG 1%, 8 hours): Rod-shaped | Shape ([3]; without AG, 8 hours): Rod-shaped | Agglomeration ([3]; Table 2-2, w/AG 1%, 8 hours): Good | Agglomeration ([3]; Table 2-2, without AG, 8 hours): Poor | Agglomeration ([3]; Table 3-2, w/AG 1%): Good | Agglomeration ([3]; Table 3-2, without AG): Good | Shape ([4]; w/AG 1%, 8 hours): Rod-shaped | Shape ([4]; without AG, 8 hours): Rod-shaped | Agglomeration ([4]; Table 2-3, w/AG 1%, 8 hours): Good | Agglomeration ([4]; Table 2-3, without AG, 8 hours): Poor | Agglomeration ([4]; Table 3-3, w/AG 1%): Good | Agglomeration ([4]; Table 3-3, without AG): Good | Zeta potential ([5]; 500 mM, W/AG 1%): −12.9 | Zeta potential ([5]; 500 mM, without AG): −3.2 | Zeta potential ([6]; w/AG 1%): −10.2 | Zeta potential ([6]; without AG): −12.1 | Zeta potential ([7]; w/AG 1%): −11.8 | Zeta potential ([7]; without AG): −12 | Agglomeration [8]: Poor and Good | Agglomeration [9]: Poor | Agglomeration [10]: Poor and Good | Agglomeration (Escherichia coli MG1655): Poor and Good | Agglomeration [11, 17]: Good | Agglomeration [11, 18]: Poor | Agglomeration ([11]; Table 3-1, 500 mM, W/AG 1%): Good | Agglomeration ([11]; Table 3-1, 500 mM, without AG): Poor | Agglomeration ([12]; W/AG 1%): Good | Agglomeration ([12]; without AG): Poor

[Cl-].[Na+] [NaCl]
Settling ([1]; 20 mM, without AG): Poor | Settling ([1]; 100 mM, without AG): Poor | Settling ([1]; 500 mM, w/AG 1%): Good | Settling ([1]; 500 mM, without AG): Good | Shape ([2]; 500 mM, w/AG 1%): Spheroidal | Shape ([2]; 500 mM, without AG): Spheroidal | Agglomeration (text) ([2]; absence of AG): did not agglomerate | Shape of the bacterial cells ([2]; absence of AG): changed from bacilli to cocci | Agglomeration (text) ([2]; coexistence with AG): agglomerated in the state of cocci | Agglomeration of the three types of enteric bad bacteria [13]: can quickly agglomerate | Agglomeration [11, 17]: Good | Agglomeration [11, 18]: Poor

bacitracin methylene disalicylate [BMD]
Dead birds Total (Clostridium perfringens; [19]): 19 | Dead birds NE Caused (Clostridium perfringens; [19]): 0 | Dead birds Total (Clostridium perfringens; [20]): 10 | Dead birds NE Caused (Clostridium perfringens; [20]): 4 | Dead birds Total (Clostridium perfringens; [21]): 6 | Dead birds NE Caused (Clostridium perfringens; [21]): 0 | NE Caused Mortality (Clostridium perfringens; average, 6 weeks, BMD 55 ppm, Coated-KCl 47 ppm in feed): 0.80 | NE Lesion Score (Clostridium perfringens; day 17, three birds per pen, 0 = none to 3 = severe, average, BMD 55 ppm, Coated-KCl 47 ppm): 0.30 | Mortality reduced to, as compared with Challenge Control (Clostridium perfringens; text b129): 13.2% | BWG %: versus Control (Non treatment) [15]: 106.0% and 103.9% and 103.5% | Weight gain as compared with Control (Non treatment), in words [15]: weight gain was improved

— patent US20240225053A9 (priority 2021, published 2024)
